Test results taken from patent US20170190705A1, “Compositions and Methods for Inhibiting BMP” (THE BRIGHAM AND WOMAN'S HOSPITAL, INC., priority 2014, published 2017).
Like-named read-outs stand apart in the source and are kept apart here.

Tests used:
ALK2 = target: T1, ALK2 (Homo sapiens, UniProt Q04771, Q207D); test: Thermal shift kinase assay ALK2; assay type: binding; conditions: for ΔTmDiff.: ALK2 minus ALK5
T1 construct: His tag (TEV-cleavable) (N, cleaved yes); made in house; host or cells: Sf9 insect cells (baculovirus)
T1 sequence (Q04771 201-499 Q207D): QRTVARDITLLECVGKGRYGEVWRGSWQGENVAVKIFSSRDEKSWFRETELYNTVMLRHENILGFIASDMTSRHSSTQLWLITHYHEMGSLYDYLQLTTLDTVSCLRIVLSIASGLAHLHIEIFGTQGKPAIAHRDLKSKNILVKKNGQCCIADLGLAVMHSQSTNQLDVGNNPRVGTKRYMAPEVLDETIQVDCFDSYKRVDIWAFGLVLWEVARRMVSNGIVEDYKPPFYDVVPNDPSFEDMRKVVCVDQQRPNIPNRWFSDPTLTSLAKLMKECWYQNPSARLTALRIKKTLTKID
Protocol: (§1) Thermal melting experiments were performed using a Real Time PCR machine Mx3005p (Stratagene) with a protein concentration of 1-2 μM and 10 μM inhibitor as described by Niesen et al., Nat Protoc 2007, 2, 2212-21. Recombinant human kinases for DSF screening were prepared by SGC using the published methods of Sanvitale et al., PLoS One 2013, 8, e62721. The potency and selectivity of certain compounds of the invention based on thermal shift kinase and ligand induced transcriptional activity assays are shown in Table 2.

BMP6 = test: Ligand induced transcriptional activity assay BMP6 (BRE-Luc); assay type: cell-based; conditions: for IC50: cell-based signaling inhibition, read-out: BMP6 IC50; for Fold Select.: TGFβ1 vs BMP6
TGFβ1 = test: Ligand induced transcriptional activity assay TGFβ1 (CAGA-Luc); conditions: Homo sapiens; cell-based signaling inhibition
[1] = test system: HePG2 hepatocarcinoma cells; assay type: cell-based; conditions: human
Protocol: The cells were incubated for 2 h (37° C. and 5% CO2) and allowed to settle and attach. Compounds of interest or DMSO were diluted in DMEM and added at final compound concentrations of 1 μM, 10 μM, and 100 μM. Cells were incubated for 4 hours and 24 hours after which the media was discarded. Cells were lysed by adding 30 μL of passive lysis buffer (Promega) and shaken at RT for 15 min. Cell viability was determined by quantifying the ATP present in each well by adding 10 μL of CellTiter-Glo (Promega) per well and measuring the light output Spectramax L luminometer (Molecular Devices) with an integration time of one second per well. Data was normalized to 100% viability for cells receiving only DMSO without any concurrent compound.

ALK5 = target: T2, ALK5 (Homo sapiens, UniProt P36897); test: Thermal shift kinase assay ALK5; assay type: binding
T2 construct: made in house
T2 sequence (P36897 34-503): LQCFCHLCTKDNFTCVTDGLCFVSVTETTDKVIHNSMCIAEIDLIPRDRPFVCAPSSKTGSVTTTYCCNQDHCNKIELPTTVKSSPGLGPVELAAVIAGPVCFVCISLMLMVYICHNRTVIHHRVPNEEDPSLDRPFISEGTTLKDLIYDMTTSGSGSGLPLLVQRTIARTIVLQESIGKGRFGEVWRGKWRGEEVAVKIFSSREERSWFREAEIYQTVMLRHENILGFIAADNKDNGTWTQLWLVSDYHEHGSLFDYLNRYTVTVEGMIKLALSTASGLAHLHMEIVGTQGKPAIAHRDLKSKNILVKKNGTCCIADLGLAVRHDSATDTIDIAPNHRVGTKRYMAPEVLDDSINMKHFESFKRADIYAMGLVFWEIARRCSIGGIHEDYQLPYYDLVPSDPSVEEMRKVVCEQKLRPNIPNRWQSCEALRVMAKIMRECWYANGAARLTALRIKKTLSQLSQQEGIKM
Protocol: as §1

caALK1 = target: T3, caALK1 (Homo sapiens, UniProt P37023, Q201D); test: Luciferase reporter assay constitutively active ALK1; conditions: read-out: Cell Based Assay caALK1 IC50
T3 construct: expressed in transfected cells; host or cells: C2C12 BRE-Luc cells infected with adenovirus (MOI 100)
T3 sequence (P37023 22-503 Q201D): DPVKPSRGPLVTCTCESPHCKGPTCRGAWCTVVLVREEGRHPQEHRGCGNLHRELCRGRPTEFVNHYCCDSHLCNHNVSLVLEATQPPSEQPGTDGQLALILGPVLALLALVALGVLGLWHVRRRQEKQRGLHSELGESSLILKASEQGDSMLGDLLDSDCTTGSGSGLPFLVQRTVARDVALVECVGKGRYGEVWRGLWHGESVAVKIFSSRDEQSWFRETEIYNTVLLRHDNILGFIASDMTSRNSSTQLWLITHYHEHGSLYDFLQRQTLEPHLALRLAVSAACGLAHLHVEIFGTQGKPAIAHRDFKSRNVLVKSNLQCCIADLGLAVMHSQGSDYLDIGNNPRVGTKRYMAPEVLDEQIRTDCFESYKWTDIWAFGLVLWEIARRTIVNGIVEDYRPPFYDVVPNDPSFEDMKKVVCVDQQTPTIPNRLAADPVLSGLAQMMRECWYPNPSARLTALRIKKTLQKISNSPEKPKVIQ
Protocol: (§2) The cells were incubated for 1 h (37° C. and 10% CO2) and allowed to settle and attach. Compounds of interest or DMSO were diluted in DMEM and added at final compound concentrations of 1 nM to 10 μM. Cells were then incubated for 30 min. Adenovirus expressing constitutively active BMP and TGF-β type I receptors (Ad.caALK1-5), generously provided by Dr. Akiko Hata (University of to California at San Francisco), were added to achieve a multiplicity of infection (MOI) of 100. Plates were incubated overnight at 37° C. Cell viability was assayed with an MIT (3-(4,5-dimethylthiazol-2-yl)-2,5-diphenyl tetrazolium bromide) colorimetric assay (Promega) per the manufacturer's instructions. Media was discarded, and firefly luciferase activity was measured (Promega) according to manufacturer's protocol. Light output was measured using a Spectramax L luminometer (Molecular Devices) with an integration time of one second per well. Data was normalized to 100% of incremental BRE-Luc activity due to adenoviruses specifying caALK1, 2, or 3, or the incremental CAGA-Luc activity due to adenoviruses specifying caALK4 or 5.

caALK3 = target: T4, caALK3 (Homo sapiens, UniProt P36894, Q233D); test: Luciferase reporter assay constitutively active ALK3; conditions: read-out: Cell Based Assay caALK3 IC50
T4 construct: expressed in transfected cells; host or cells: C2C12 BRE-Luc cells infected with adenovirus (MOI 100)
T4 sequence (P36894 24-532 Q233D): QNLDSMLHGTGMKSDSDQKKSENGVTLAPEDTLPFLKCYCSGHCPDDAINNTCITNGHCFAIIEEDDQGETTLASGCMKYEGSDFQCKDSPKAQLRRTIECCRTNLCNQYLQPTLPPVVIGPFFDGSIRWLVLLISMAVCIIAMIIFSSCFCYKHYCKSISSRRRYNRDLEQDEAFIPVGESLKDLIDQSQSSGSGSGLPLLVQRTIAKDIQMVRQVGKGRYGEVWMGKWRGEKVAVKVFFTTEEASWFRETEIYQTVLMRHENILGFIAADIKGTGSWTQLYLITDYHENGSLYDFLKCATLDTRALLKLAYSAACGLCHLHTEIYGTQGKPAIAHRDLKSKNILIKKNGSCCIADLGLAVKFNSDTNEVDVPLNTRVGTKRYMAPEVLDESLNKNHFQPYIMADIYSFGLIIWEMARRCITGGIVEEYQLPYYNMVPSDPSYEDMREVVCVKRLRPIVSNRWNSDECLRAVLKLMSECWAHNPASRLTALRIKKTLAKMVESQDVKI
Text: as §2, with “C2Cl2 […] cells stably transfected with BMP responsive element from the Id promoter fused to luciferase reporter gene (BRE-Luc) were generously provided by Dr. Peter ten Dijke (Leiden University Medical Center, NL) following the methods described by Zilberberg et al., BMC cell biology 2007, 8, 41-50. Human embryonic kidney 293T cells stably transfected with the TGF-β responsive element from the PAI-1 promoter fused to luciferase reporter gene (CAGA-Luc) were generously provided by Dr. Howard Weiner (Brigham and Women's Hospital, Boston, Mass.) following the methods described by Oida et al., PloS one 2011, 6, e18365. C2Cl2 Bre-Luc and 293T CAGA-Luc cells were seeded in DMEM supplemented with 2% FBS at 20,000 cells per well in tissue culture treated 96-well plates (Costar® 3610; Corning). The” for “The”

caALK4 = target: T5, caALK4 (Homo sapiens, UniProt P36896); test: Luciferase reporter assay constitutively active ALK4; conditions: read-out: Cell Based Assay caALK4 IC50
T5 sequence (P36896 1-505 T206D): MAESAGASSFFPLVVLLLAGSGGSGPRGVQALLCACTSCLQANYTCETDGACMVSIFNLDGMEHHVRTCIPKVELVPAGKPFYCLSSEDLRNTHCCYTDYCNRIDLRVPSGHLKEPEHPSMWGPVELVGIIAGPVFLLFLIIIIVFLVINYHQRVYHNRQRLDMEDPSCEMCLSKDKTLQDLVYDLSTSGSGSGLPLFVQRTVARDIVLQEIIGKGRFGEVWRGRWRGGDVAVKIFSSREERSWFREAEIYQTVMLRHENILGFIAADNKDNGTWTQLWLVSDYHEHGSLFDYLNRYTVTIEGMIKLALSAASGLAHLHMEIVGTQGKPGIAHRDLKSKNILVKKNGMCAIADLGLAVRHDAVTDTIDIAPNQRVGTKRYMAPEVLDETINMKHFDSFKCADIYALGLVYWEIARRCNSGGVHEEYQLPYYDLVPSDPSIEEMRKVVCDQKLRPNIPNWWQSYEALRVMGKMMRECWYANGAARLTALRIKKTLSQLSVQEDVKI
Text: as §2, with “C2Cl2 […] cells stably transfected with BMP responsive element from the Id promoter fused to luciferase reporter gene (BRE-Luc) were generously provided by Dr. Peter ten Dijke (Leiden University Medical Center, NL) following the methods described by Zilberberg et al., BMC cell biology 2007, 8, 41-50. Human embryonic kidney 293T cells stably transfected with the TGF-β responsive element from the PAI-1 promoter fused to luciferase reporter gene (CAGA-Luc) were generously provided by Dr. Howard Weiner (Brigham and Women's Hospital, Boston, Mass.) following the methods described by Oida et al., PloS one 2011, 6, e18365. C2Cl2 Bre-Luc and 293T CAGA-Luc cells were seeded in DMEM supplemented with 2% FBS at 20,000 cells per well in tissue culture treated 96-well plates (Costar® 3610; Corning). The” for “The”

| Structure (SMILES) | ΔTmDiff. (ALK2) | IC50 (BMP6) [nM] | IC50 (TGFβ1) [nM] | ΔTm at 10 µM (ALK2; 10 μM inhibitor) [°C] | ΔT ALK2 (ALK2; Table 6) [°C] | ΔT Diff. (ALK2; Table 6, ALK2 minus ALK5) [°C] | ΔTm at 10 µM (ALK5; 10 μM inhibitor) [°C] | ΔT ALK5 (ALK5; Table 6) [°C] | IC50 (caALK1) [nM] | IC50 (caALK3) [nM] | IC50 (caALK4) [nM] | Cell viability ([1]; 4 h, 1 μM) [%] | Cell viability ([1]; 4 h, 10 μM) [%] | Cell viability ([1]; 4 h, 100 μM) [%] | Cell viability ([1]; 24 h, 1 μM) [%] | Cell viability ([1]; 24 h, 10 μM) [%] | Cell viability ([1]; 24 h, 100 μM) [%] | Fold Select. (BMP6) |
| --- | --- | --- | --- | --- | --- | --- | --- | --- | --- | --- | --- | --- | --- | --- | --- | --- | --- | --- |
| COc1cc(-c2cnc(N)c(-c3cc(OC)c(OC)c(OC)c3)c2)ccc1O [Compound 12, 4-(6-amino-5-(3,4,5-trimethoxyphenyl)pyridin-3-yl)-2-methoxyphenol] | 1.7 | 90 ± 30 | 2300 | – | – | – | – | – | – | – | – | 96 | 103 | 93 | 97 | 88 | 89 | – |
| COc1cc(-c2cncc(-c3ccc(N4CCNCC4)cc3)c2)cc(OC)c1OC [Compound 26, 1-(4-(5-(3,4,5-trimethoxyphenyl)pyridin-3-yl)phenyl)piperazine] | 3.7 | – | – | 14 | 14.1 | 3.7 | 10.4 | 10.4 | 202 | 105 | 427 | 96 | 103 | – | 103 | 80 | – | – |
| COc1cc(-c2cc(-c3ccc(N4CCNCC4)cc3)cnc2N(C)C)cc(OC)c1OC [Compound 25, N,N-dimethyl-5-(4-(piperazin-1-yl)phenyl)-3-(3,4,5-trimethoxyphenyl)pyridin-2-amine] | 0.1 | 1700 | 15000 | – | – | – | – | – | – | – | – | 92 | 103 | 95 | 101 | 91 | – | – |
| COc1cc(-c2cc(-c3ccc(N4CCNCC4)cc3)cnc2Cl)cc(OC)c1OC [Compound 27, 1-(4-(6-chloro-5-(3,4,5-trimethoxyphenyl)pyridin-3-yl)phenyl)piperazine] | 3.8 | 170 ± 60 | 90000 | – | – | – | – | – | – | – | – | 95 | 103 | 97 | 101 | 98 | – | 244 |
| COc1cc(-c2cc(-c3ccc(N4CCNCC4)cc3)cnc2N)ccc1Cl [Compound 22, 3-(4-chloro-3-methoxyphenyl)-5-(4-(piperazin-1-yl)phenyl)pyridin-2-amine] | 2.7 | 160 ± 10 | – | – | – | – | – | – | – | – | – | 96 | 104 | – | 101 | 81 | – | – |

Second part, led by results:

| ΔTmDiff. (ALK2) | IC50 (BMP6) [nM] | IC50 (TGFβ1) [nM] | ΔTm at 10 µM (ALK2; 10 μM inhibitor) [°C] | ΔT ALK2 (ALK2; Table 6) [°C] | ΔT Diff. (ALK2; Table 6, ALK2 minus ALK5) [°C] | ΔTm at 10 µM (ALK5; 10 μM inhibitor) [°C] | ΔT ALK5 (ALK5; Table 6) [°C] | IC50 (caALK1) [nM] | IC50 (caALK3) [nM] | IC50 (caALK4) [nM] | Structure (SMILES) | Cell viability ([1]; 4 h, 1 μM) [%] | Cell viability ([1]; 4 h, 10 μM) [%] | Cell viability ([1]; 4 h, 100 μM) [%] | Cell viability ([1]; 24 h, 1 μM) [%] | Cell viability ([1]; 24 h, 10 μM) [%] | Cell viability ([1]; 24 h, 100 μM) [%] | Fold Select. (BMP6) |
| --- | --- | --- | --- | --- | --- | --- | --- | --- | --- | --- | --- | --- | --- | --- | --- | --- | --- | --- |
| 0.1 | 1700 | 82000 | – | – | – | – | – | – | – | – | COc1cc(-c2cc(-c3ccc(N4CCNCC4)cc3)cnc2OC)cc(OC)c1OC [Compound 28, 1-(4-(6-methoxy-5-(3,4,5-trimethoxyphenyl)pyridin-3-yl)phenyl)piperazine] | 92 | 102 | – | 99 | 98 | – | – |
| 1.5 | 20 ± 1 | 580 ± 50 | – | – | – | – | – | – | – | – | COc1cc(-c2cc(-c3ccc(O)cc3)cnc2N)cc(OC)c1OC [Compound 11, 4-(6-Amino-5-(3,4,5-trimethoxyphenyl)pyridin-3-yl)phenol] | 95 | 98 | 91 | 99 | 89 | 82 | 28 |
